{
  "source": "patent US10849976B2",
  "about": "“Compositions and methods for protecting saponin activity” (SarTec Corporation, priority 2016, dated 2020)",
  "system": "glucose oxidase",
  "excerpt": "In addition, a saponin molecule has a few to several glucose units bonded to it, depending on the exact plant from which the saponin is extracted. Each glucose unit bonded to the saponin may have up to four more hydroxy (—OH) groups attached and pointing outward from the glucose ring into the water solution. Glucose concentrations can be measured by an assay that depends on glucose oxidase acting upon glucose. However, glucose oxidase is prevented from acting upon glucose if borate is effectively bound to glucose. Thus, observing a declining amount of glucose as measured using a glucose oxidase based assay is indicative of borate binding to glucose, which in turn, serves as another indication of the efficacy of the saponin-protective agent.\nA standard glucose solution was prepared by weighing about 0.9 g of glucose and 0.450 g of NaCl into a 500.0 mL volumetric flask. Reverse osmosis water was added while mixing the reagents to reach the 500 mL total volume. Next, a 40.0 mL portion of the standard glucose solution was added to a 50 mL vial and 0.106 g of sodium borate was successively added resulting in a molar ratio of borate:glucose in a range of 1:1 to 6:1. Glucose levels were measured using a OneTouch Ultra 2 blood glucose meter.\nThe glucose level for the standard glucose/saline solution was taken both before and after the borate-containing glucose solutions were measured for glucose concentration.",
  "note": "Like-named read-outs stand apart in the source and are kept apart here.",
  "data": [
    {"molecule": "O=BOB(O)OB(O)OB=O", "note": "[Sodium Borate, sodium borate]", "values": [
      {"measurement": "Protection of glucose from oxidation by glucose oxidase", "setting": "3:1 borate:glucose molar ratio", "value": "effectively entirely protected"},
      {"measurement": "Glucose Meter Reading", "setting": "Borate:Glucose molar ratio 1:1, 0.106 sodium borate added", "value": 106, "unit": "mg/dL"},
      {"measurement": "Glucose Meter Reading", "setting": "Borate:Glucose molar ratio 2:1, 0.212 sodium borate added", "value": 38, "unit": "mg/dL"},
      {"measurement": "Glucose Meter Reading", "setting": "Borate:Glucose molar ratio 3:1, 0.318 sodium borate added", "value": "“Low Glucose < 20 mg/dL”"},
      {"measurement": "Glucose Meter Reading", "setting": "Borate:Glucose molar ratio 6:1, 0.636 sodium borate added", "value": "“Error 4”"}
    ]}
  ]
}
